Reference: PubChem BioAssay (NCI)
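48-hour exposure; five concentrations; linearly interpolated endpoints. GI50 marks 50% less growth. TGI marks complete inhibition of growth.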

How the values were obtained:
Test in all cases: DTP human tumour cell line panel, 48 h
DU-145 prostate = test system: DU-145 prostate
T-47D breast = test system: T-47D breast
MOLT-4 leukemia = test system: MOLT-4 leukemia
UACC-257 melanoma = test system: UACC-257 melanoma
KM12 colon = test system: KM12 colon
HL-60(TB) leukemia = test system: HL-60(TB) leukemia
SK-MEL-28 melanoma = test system: SK-MEL-28 melanoma
A549 NSCLC = test system: A549 NSCLC
PC-3 prostate = test system: PC-3 prostate
COLO 205 colon = test system: COLO 205 colon
NCI-H226 lung = test system: NCI-H226 lung
A498 renal = test system: A498 renal
NCI-H522 lung = test system: NCI-H522 lung
SNB-19 CNS = test system: SNB-19 CNS
NCI-H23 lung = test system: NCI-H23 lung
LOX IMVI melanoma = test system: LOX IMVI melanoma
HOP-62 NSCLC = test system: HOP-62 NSCLC
K-562 leukemia = test system: K-562 leukemia
SNB-75 CNS = test system: SNB-75 CNS
MDA-MB-435 = test system: MDA-MB-435
CCRF-CEM leukemia = test system: CCRF-CEM leukemia
HCT-116 colon = test system: HCT-116 colon
SF-539 CNS = test system: SF-539 CNS
OVCAR-4 ovarian = test system: OVCAR-4 ovarian
OVCAR-3 ovarian = test system: OVCAR-3 ovarian
SN12C renal = test system: SN12C renal
RPMI-8226 leukemia = test system: RPMI-8226 leukemia
SK-MEL-2 melanoma = test system: SK-MEL-2 melanoma
SF-295 CNS = test system: SF-295 CNS
BT-549 breast = test system: BT-549 breast
SK-OV-3 ovarian = test system: SK-OV-3 ovarian
ACHN renal = test system: ACHN renal
UO-31 renal = test system: UO-31 renal
MALME-3M melanoma = test system: MALME-3M melanoma
NCI-H460 lung = test system: NCI-H460 lung
MCF7 breast = test system: MCF7 breast
786-0 renal = test system: 786-0 renal
TK-10 renal = test system: TK-10 renal
HS 578T breast = test system: HS 578T breast
OVCAR-5 ovarian = test system: OVCAR-5 ovarian
MDA-MB-231 breast = test system: MDA-MB-231 breast
HOP-92 NSCLC = test system: HOP-92 NSCLC
SR leukemia = test system: SR leukemia
UACC-62 melanoma = test system: UACC-62 melanoma
HT29 colon = test system: HT29 colon
IGROV1 ovarian = test system: IGROV1 ovarian
HCC-2998 colon = test system: HCC-2998 colon
SW-620 colon = test system: SW-620 colon
HCT-15 colon = test system: HCT-15 colon
SF-268 CNS = test system: SF-268 CNS
RXF 393 renal = test system: RXF 393 renal
EKVX NSCLC = test system: EKVX NSCLC
M14 melanoma = test system: M14 melanoma
OVCAR-8 ovarian = test system: OVCAR-8 ovarian
NCI/ADR-RES ovarian = test system: NCI/ADR-RES ovarian
U251 CNS = test system: U251 CNS
SK-MEL-5 melanoma = test system: SK-MEL-5 melanoma
CAKI-1 renal = test system: CAKI-1 renal
MDA-N = test system: MDA-N

## Nc1cc2ccncc2c2ccccc12
DU-145 prostate
  GI50: 13.2 µM
  TGI: > 100 µM
T-47D breast
  GI50: 22.3 µM
  TGI: > 100 µM
MOLT-4 leukemia
  GI50: 5.35 µM
  TGI: > 100 µM
UACC-257 melanoma
  GI50: 13.6 µM
  TGI: 29.7 µM
KM12 colon
  GI50: 11.6 µM
  TGI: > 100 µM
HL-60(TB) leukemia
  GI50: 20 µM
  TGI: 61.9 µM
SK-MEL-28 melanoma
  GI50: 16.6 µM
  TGI: 33.6 µM
A549 NSCLC
  GI50: 18.9 µM
  TGI: > 100 µM
PC-3 prostate
  GI50: 16.2 µM
  TGI: > 100 µM
COLO 205 colon
  GI50: 6.89 µM
  TGI: 20.8 µM
NCI-H226 lung
  GI50: 5.75 µM
  TGI: 73.6 µM
A498 renal
  GI50: 1.84 µM
  TGI: 13.7 µM
NCI-H522 lung
  GI50: 5.49 µM
  TGI: 26.6 µM
SNB-19 CNS
  GI50: 19.5 µM
  TGI: > 100 µM
NCI-H23 lung
  GI50: 16.7 µM
  TGI: 80.1 µM
LOX IMVI melanoma
  GI50: 8.68 µM
  TGI: > 100 µM
HOP-62 NSCLC
  GI50: 13.7 µM
  TGI: > 100 µM
K-562 leukemia
  GI50: 13.5 µM
  TGI: 73 µM
SNB-75 CNS
  GI50: 16.1 µM
  TGI: 35.2 µM
MDA-MB-435
  GI50: 17.2 µM
  TGI: 60 µM
CCRF-CEM leukemia
  GI50: 12.6 µM
  TGI: 99.1 µM
HCT-116 colon
  GI50: 4.85 µM
  TGI: > 100 µM
SF-539 CNS
  GI50: 13.4 µM
  TGI: 34 µM
OVCAR-4 ovarian
  GI50: 20.2 µM
  TGI: > 100 µM
OVCAR-3 ovarian
  GI50: 18.8 µM
  TGI: 76.5 µM
SN12C renal
  GI50: 11.4 µM
  TGI: > 100 µM
RPMI-8226 leukemia
  GI50: 11.6 µM
  TGI: 63.5 µM
SK-MEL-2 melanoma
  GI50: 13.6 µM
  TGI: 30 µM
SF-295 CNS
  GI50: 10.8 µM
  TGI: 57.4 µM
BT-549 breast
  GI50: 23.9 µM
  TGI: > 100 µM
SK-OV-3 ovarian
  GI50: 13.6 µM
  TGI: 87.4 µM
ACHN renal
  GI50: 4.44 µM
  TGI: 58.5 µM
UO-31 renal
  GI50: 4.1 µM
  TGI: 45.6 µM
MALME-3M melanoma
  GI50: 15.7 µM
  TGI: 31.4 µM
NCI-H460 lung
  GI50: 8.78 µM
  TGI: 70.6 µM
MCF7 breast
  GI50: 19.1 µM
  TGI: > 100 µM
786-0 renal
  GI50: 23.3 µM
  TGI: > 100 µM
TK-10 renal
  GI50: 20.2 µM
  TGI: 91.1 µM
HS 578T breast
  GI50: 13.9 µM
  TGI: 40.4 µM
OVCAR-5 ovarian
  GI50: 18.7 µM
  TGI: 88.1 µM
MDA-MB-231 breast
  GI50: 16.4 µM
  TGI: 96.1 µM
HOP-92 NSCLC
  GI50: 19.6 µM
  TGI: 68.9 µM
SR leukemia
  GI50: 8.56 µM
  TGI: 47.9 µM
UACC-62 melanoma
  GI50: 13.5 µM
  TGI: 38.7 µM
HT29 colon
  GI50: 13.2 µM
  TGI: 43 µM
IGROV1 ovarian
  GI50: 11.9 µM
  TGI: > 100 µM
HCC-2998 colon
  GI50: 14.2 µM
  TGI: 40.4 µM
SW-620 colon
  GI50: 5.19 µM
  TGI: 89 µM
HCT-15 colon
  GI50: 11.8 µM
  TGI: > 100 µM
SF-268 CNS
  GI50: 11.1 µM
  TGI: 52.5 µM
RXF 393 renal
  GI50: 10.8 µM
  TGI: 29 µM
EKVX NSCLC
  GI50: 19.3 µM
  TGI: > 100 µM
M14 melanoma
  GI50: 14.5 µM
  TGI: 32.1 µM
OVCAR-8 ovarian
  GI50: 5.25 µM
  TGI: > 100 µM
NCI/ADR-RES ovarian
  GI50: 8.7 µM
  TGI: > 100 µM
U251 CNS
  GI50: 21 µM
  TGI: > 100 µM
SK-MEL-5 melanoma
  GI50: 15.3 µM
  TGI: 31.2 µM
CAKI-1 renal
  GI50: 18.4 µM
  TGI: > 100 µM

## Clc1cc(-c2csc(Cl)c2)cs1
DU-145 prostate
  TGI: > 100 µM
MOLT-4 leukemia
  TGI: > 100 µM
UACC-257 melanoma
  TGI: > 100 µM
KM12 colon
  TGI: > 100 µM
HL-60(TB) leukemia
  TGI: > 100 µM
SK-MEL-28 melanoma
  TGI: > 100 µM
A549 NSCLC
  TGI: > 100 µM
PC-3 prostate
  TGI: > 100 µM
COLO 205 colon
  TGI: > 100 µM
NCI-H226 lung
  TGI: > 100 µM
A498 renal
  TGI: > 100 µM
MDA-N
  TGI: > 100 µM
NCI-H522 lung
  TGI: > 100 µM
SNB-19 CNS
  TGI: > 100 µM
NCI-H23 lung
  TGI: > 100 µM
LOX IMVI melanoma
  TGI: > 100 µM
SNB-75 CNS
  TGI: > 100 µM
MDA-MB-435
  TGI: > 100 µM
CCRF-CEM leukemia
  TGI: > 100 µM
HCT-116 colon
  TGI: > 100 µM
SF-539 CNS
  TGI: > 100 µM
OVCAR-4 ovarian
  TGI: > 100 µM
OVCAR-3 ovarian
  TGI: > 100 µM
SN12C renal
  TGI: > 100 µM
RPMI-8226 leukemia
  TGI: > 100 µM
SK-MEL-2 melanoma
  TGI: > 100 µM
SF-295 CNS
  TGI: > 100 µM
ACHN renal
  TGI: > 100 µM
UO-31 renal
  TGI: > 100 µM
NCI-H460 lung
  TGI: > 100 µM
MCF7 breast
  TGI: > 100 µM
786-0 renal
  TGI: > 100 µM
TK-10 renal
  TGI: > 100 µM
HS 578T breast
  TGI: > 100 µM
OVCAR-5 ovarian
  TGI: > 100 µM
MDA-MB-231 breast
  TGI: > 100 µM
HOP-92 NSCLC
  TGI: > 100 µM
SR leukemia
  TGI: > 100 µM
UACC-62 melanoma
  TGI: > 100 µM
HT29 colon
  TGI: > 100 µM
IGROV1 ovarian
  TGI: > 100 µM
SW-620 colon
  TGI: > 100 µM
HCT-15 colon
  TGI: > 100 µM
SF-268 CNS
  TGI: > 100 µM
RXF 393 renal
  TGI: > 100 µM
EKVX NSCLC
  TGI: > 100 µM
M14 melanoma
  TGI: > 100 µM
OVCAR-8 ovarian
  TGI: > 100 µM
NCI/ADR-RES ovarian
  TGI: > 100 µM
U251 CNS
  TGI: > 100 µM
SK-MEL-5 melanoma
  TGI: > 100 µM
CAKI-1 renal
  TGI: > 100 µM

## N#Cc1nc(C(=O)c2ccccc2)oc1N
DU-145 prostate
  TGI: > 100 µM
MOLT-4 leukemia
  TGI: > 100 µM
UACC-257 melanoma
  TGI: > 100 µM
KM12 colon
  TGI: > 100 µM
HL-60(TB) leukemia
  TGI: > 100 µM
SK-MEL-28 melanoma
  TGI: > 100 µM
A549 NSCLC
  TGI: > 100 µM
PC-3 prostate
  TGI: > 100 µM
A498 renal
  TGI: > 100 µM
MDA-N
  TGI: > 100 µM
SNB-19 CNS
  TGI: > 100 µM
LOX IMVI melanoma
  TGI: > 100 µM
HOP-62 NSCLC
  TGI: > 100 µM
K-562 leukemia
  TGI: > 100 µM
SNB-75 CNS
  TGI: 8.45 µM
MDA-MB-435
  TGI: > 100 µM
CCRF-CEM leukemia
  TGI: > 100 µM
HCT-116 colon
  TGI: > 100 µM
OVCAR-4 ovarian
  TGI: > 100 µM
SN12C renal
  TGI: > 100 µM
RPMI-8226 leukemia
  TGI: > 100 µM
SK-MEL-2 melanoma
  TGI: > 100 µM
SK-OV-3 ovarian
  TGI: > 100 µM
ACHN renal
  TGI: > 100 µM
MCF7 breast
  TGI: > 100 µM
786-0 renal
  TGI: > 100 µM
TK-10 renal
  TGI: > 100 µM
HS 578T breast
  TGI: > 100 µM
OVCAR-5 ovarian
  TGI: > 100 µM
MDA-MB-231 breast
  TGI: > 100 µM
HOP-92 NSCLC
  TGI: > 100 µM
UACC-62 melanoma
  TGI: > 100 µM
HT29 colon
  TGI: > 100 µM
IGROV1 ovarian
  TGI: > 100 µM
SW-620 colon
  TGI: > 100 µM
HCT-15 colon
  TGI: > 100 µM
SF-268 CNS
  TGI: > 100 µM
EKVX NSCLC
  TGI: > 100 µM
M14 melanoma
  TGI: > 100 µM
OVCAR-8 ovarian
  TGI: > 100 µM
U251 CNS
  TGI: > 100 µM
SK-MEL-5 melanoma
  TGI: > 100 µM
CAKI-1 renal
  TGI: > 100 µM
